For 41 molecules, Ki results are on record in patent US20050209278A1, “Piperidinyl- and piperazinyl-sulfonylmethyl hydroxamic acids and their use as protease inhibitors” (priority 2002, published 2005).

Read-outs that look alike come from different tables or passages of the source.

Assay [1] deals with T1, MMP-13 (Homo sapiens, UniProt P45452).
T1 construct: made in house; host or cells: baculovirus / insect cells
Description: In vitro MMP inhibition, Ki determination (fluorogenic substrate II). The class given is biochemical. The settings on record: read-out: MMP-13 Ki. An outline of the steps:
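Ki determined with human recombinant MMP-13, baculovirus-expressed as proenzyme and activated with APMA. Fluorogenic MCA/Dpa substrate II at 4 μM (at or below Km) with low enzyme in Tris buffer pH 7.5 with CaCl2. Incubation was 1 h at room temperature, with fluorescence read at 330/420 nm.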

The target of assay [2] is T2, MMP-14 (Homo sapiens, UniProt P50281).
T2 construct: The catalytic domain enzyme was expressed in E. coli inclusion bodies, solubilized in urea; made in house
The assay is described as above. The following applies: read-out: MMP-14 Ki. Format: biochemical. The essentials:
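E. coli-expressed, refolded MMP-14 catalytic domain, activated with APMA or trypsin, in 100 mM Tris-HCl pH 7.5, 100 mM NaCl, 10 mM CaCl2, 0.05% Brij-type detergent. Apparent Ki by Morrison-equation regression of velocity vs inhibitor and enzyme concentration.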

One may read the Ki as the dissociation constant of the complex between target and ligand, obtained from inhibition or displacement.

Turning to `CCCCOc1ccc(N2CCN(S(=O)(=O)C3(C(=O)NO)CCN(C(=O)COC)CC3)CC2)cc1` [Example 268], the Ki in assay [1] (value outside parentheses) is 0.311 nM; in assay [2] (value outside parentheses), 1390 nM. On to `CCCCOc1ccc(N2CCN(S(=O)(=O)C3(C(=O)NO)CCOCC3)CC2)nc1` [Example 100], for which the inhibition constant Ki in assay [1] (value not in parenthesis) is 0.06 nM; in assay [2] (value not in parenthesis) it was 411 nM. On to `CCCCOc1ccc(N2CCN(S(=O)(=O)C3(C(=O)NO)CCN(C(=O)C(C)(C)C)CC3)CC2)cc1` [Example 267], for which the Ki is 0.64 nM in assay [1] (value outside parentheses) and over 10000 nM in assay [2] (value outside parentheses). As for `CCCCOc1ccc(N2CCN(S(=O)(=O)C3(C(=O)NO)CCN(C=O)CC3)CC2)cc1` [Example 269], the Ki in assay [1] (value outside parentheses) amounted to 0.25 nM; in assay [2] (value outside parentheses) it was 1200 nM.

As to `CCCCOc1ccc(N2CCN(S(=O)(=O)C3(C(=O)NO)CCN(C)CC3)CC2)cc1` [Example 280], the Ki in assay [1] (value outside parentheses) is 1.02 nM; in assay [2] (value outside parentheses), 7310 nM. For `CCCCOc1ccc(N2CCN(S(=O)(=O)C3(C(=O)NO)CCN(C(=O)C4CC4)CC3)CC2)cc1` [Example 260], the Ki in assay [1] (value outside parentheses) stood at 0.301 nM; in assay [2] (value outside parentheses), 2800 nM. For the molecule `CCCCCc1ccc(N2CCN(S(=O)(=O)C3(C(=O)NO)CCN(C4CC4)CC3)CC2)cc1` [Example 272], the inhibitory constant (Ki) turned out to be 0.33 nM in assay [1] (value outside parentheses) and 4350 nM in assay [2] (value outside parentheses).

Consider `COCCOc1ccc(N2CCN(S(=O)(=O)C3(C(=O)NO)CCN(C4CC4)CC3)CC2)cc1F` [Example 297], for which, in assay [1] (value outside parentheses), the inhibitory constant (Ki) came to 1.4 nM. Regarding `CCCCOc1ccc(N2CCN(S(=O)(=O)C3(C(=O)NO)CCN(C(=O)c4ccccn4)CC3)CC2)cc1` [Example 277], the Ki was 0.23 nM in assay [1] (value outside parentheses) and 3020 nM in assay [2] (value outside parentheses). For the molecule `CCCCOc1ccc(N2CCN(S(=O)(=O)C3(C(=O)NO)CCN(c4ccc(O)nn4)CC3)CC2)cc1` [Example 283], the values for the inhibitory constant (Ki) in assay [1] (value outside parentheses) and in assay [2] (value outside parentheses) were 0.19 nM and 549 nM, respectively. In the case of `O=C(NO)C1(S(=O)(=O)N2CCN(c3ccc(OC4CCC4)c(F)c3)CC2)CCOCC1` [Example 73], the inhibition constant (Ki) is 9.78 nM in assay [1] (value not in parenthesis) and 2360 nM in assay [2] (value not in parenthesis). `COCCN1CCC(C(=O)NO)(S(=O)(=O)N2CCC(c3ccc(CCCC(F)(F)F)cc3)CC2)CC1` [Example 310]: the Ki in assay [1] (value outside parentheses) was found to be 0.268 nM; in assay [2] (value outside parentheses) it was 4820 nM. The matching figures for `CCCCOc1ccc(N2CCN(S(=O)(=O)C3(C(=O)NO)CCN(C(=O)c4ccncc4)CC3)CC2)cc1` [Example 259]: 0.359 nM and 2650 nM. As to `O=C(NO)C1(S(=O)(=O)N2CCN(c3ccc(OCCCCF)cc3)CC2)CCOCC1` [Example 89], the Ki in assay [1] (value not in parenthesis) was 0.17 nM; in assay [2] (value not in parenthesis) it was 2800 nM.

As to `CCCCOc1ccc(N2CCN(S(=O)(=O)C3(C(=O)NO)CCNCC3)CC2)cc1` [Example 276], the results for the Ki in assay [1] (value outside parentheses) and in assay [2] (value outside parentheses) were 2.49 nM and over 10000 nM, respectively. On to `CCc1ccc(N2CCN(S(=O)(=O)C3(C(=O)NO)CCCC3)CC2)nc1` [Example 261], for which the Ki in assay [1] (value outside parentheses) was 0.458 nM; in assay [2] (value outside parentheses), 48.1 nM.

Consider `CCCCc1ccc(C2CCN(S(=O)(=O)C3(C(=O)NO)CCOCC3)CC2)nc1` [Example 307], for which the Ki was found to be 0.654 nM in assay [1] (value outside parentheses) and 1290 nM in assay [2] (value outside parentheses).

Turning to `CCCCOc1ccc(N2CCN(S(=O)(=O)C3(C(=O)NO)CCN(C(=O)CN)CC3)CC2)cc1` [Example 292], the Ki in assay [1] (value outside parentheses) came to 0.98 nM; in assay [2] (value outside parentheses), 6540 nM. For the molecule `CCCCOc1ccc(N2CCN(S(=O)(=O)C3(C(=O)NO)CCN(C(=O)c4cccnc4)CC3)CC2)cc1` [Example 266], the results for the Ki in assay [1] (value outside parentheses) and in assay [2] (value outside parentheses) were 0.308 nM and 2390 nM, respectively.

`CCCCOc1ccc(N2CCN(S(=O)(=O)C3(C(=O)NO)CCN(Cc4ccco4)CC3)CC2)cc1` [Example 252]: the inhibition constant Ki was found to be 0.373 nM in assay [1] (value outside parentheses) and 5180 nM in assay [2] (value outside parentheses). On to `CCCCOc1ccc(N2CCN(S(=O)(=O)C3(C(=O)NO)Cc4ccccc4C3)CC2)nc1` [Example 85], for which the figures for the Ki in assay [1] (value not in parenthesis) and in assay [2] (value not in parenthesis) were 0.25 nM and 1510 nM, respectively.

With `CCCCCc1ccc(C2CCN(S(=O)(=O)C3(C(=O)NO)CCOCC3)CC2)nc1` [Example 305], the Ki was 0.136 nM in assay [1] (value outside parentheses) and 645 nM in assay [2] (value outside parentheses).

As to `CCCCOc1ccc(N2CCN(S(=O)(=O)C3(C(=O)NO)CCN(C(=O)CC)CC3)CC2)cc1` [Example 274], the Ki in assay [1] (value outside parentheses) was found to be 0.484 nM; in assay [2] (value outside parentheses), 3030 nM. In the case of `C#CCN1CCC(C(=O)NO)(S(=O)(=O)N2CCN(c3ccc(OCCCC)cc3)CC2)CC1` [Example 303], the Ki in assay [1] (value outside parentheses) turned out to be 0.46 nM; in assay [2] (value outside parentheses) it was 5000 nM.

In the case of `O=C(NO)C1(S(=O)(=O)N2CCN(c3ccc(SC(F)(F)F)cc3)CC2)CCS(=O)(=O)CC1` [Example 258], the Ki in assay [1] (value outside parentheses) was 30.5 nM; in assay [2] (value outside parentheses), 4890 nM. On to `CCCCOc1ccc(N2CCN(S(=O)(=O)C3(C(=O)NO)CCOCC3)CC2)c(F)c1` [Example 90], for which the Ki in assay [1] (value not in parenthesis) amounted to 0.39 nM; in assay [2] (value not in parenthesis) it was 4550 nM. As for `CCCCOc1ccc(N2CCN(S(=O)(=O)C3(C(=O)NO)CCN(C(=O)CC(F)(F)F)CC3)CC2)cc1` [Example 265], the results for the Ki in assay [1] (value outside parentheses) and in assay [2] (value outside parentheses) were 0.637 nM and 3790 nM, respectively. Turning to `C#CCOC(=O)N1CCC(C(=O)NO)(S(=O)(=O)N2CCN(c3ccc(OCCCC)cc3)CC2)CC1` [Example 98], the values for the Ki in assay [1] (value not in parenthesis) and in assay [2] (value not in parenthesis) were 0.38 nM and 1620 nM, respectively. `CCCCOc1ccc(N2CCN(S(=O)(=O)C3(C(=O)NO)CCN(C(=O)N(C)C)CC3)CC2)cc1` [Example 254]: the values for the Ki in assay [1] (value outside parentheses) and in assay [2] (value outside parentheses) were 0.1 nM and 856 nM, respectively.

Regarding `O=C(NO)C1(S(=O)(=O)N2CCN(c3ccc(OCCCC(F)(F)F)cn3)CC2)CCOCC1` [Example 83], the Ki in assay [1] (value not in parenthesis) worked out at 0.048 nM; in assay [2] (value not in parenthesis), 981 nM. As to `CCCCOc1ccc(N2CCN(S(=O)(=O)C3(C(=O)NO)CCN(c4nc5ccccc5s4)CC3)CC2)cc1` [Example 93], the Ki in assay [1] (value not in parenthesis) turned out to be 26 nM; in assay [2] (value not in parenthesis), 9860 nM. On to `CC(C)CCOc1ccc(N2CCN(S(=O)(=O)C3(C(=O)NO)CCOCC3)CC2)cc1` [Example 279], for which the inhibitory constant (Ki) in assay [1] (value outside parentheses) came out at 0.32 nM; in assay [2] (value outside parentheses), 4270 nM. For `O=C(NO)C1(S(=O)(=O)N2CCC(c3ccc(Br)cn3)CC2)CCOCC1` [Example 306], the Ki worked out at 0.863 nM in assay [1] (value outside parentheses) and 31.7 nM in assay [2] (value outside parentheses).

For `CCCCOc1ccc(N2CCN(S(=O)(=O)C3(C(=O)NO)CCN(C(=O)C(C)C)CC3)CC2)cc1` [Example 273], the results for the inhibition constant Ki in assay [1] (value outside parentheses) and in assay [2] (value outside parentheses) were 0.313 nM and 5090 nM, respectively. On to `CCCCOc1ccc(N2CCN(S(=O)(=O)C3(C(=O)NO)CCN(C4CC4)CC3)CC2)cc1` [Example 301], for which the Ki in assay [1] (value outside parentheses) is 0.23 nM. `CCCCOc1ccc(N2CCN(S(=O)(=O)C3(C(=O)NO)CCN(C(=O)c4ccccc4)CC3)CC2)cc1` [Example 255]: the Ki was determined as 0.39 nM in assay [1] (value outside parentheses) and 5660 nM in assay [2] (value outside parentheses). For `CCN1CCC(C(=O)NO)(S(=O)(=O)N2CCN(c3ccc(OCCCC(F)(F)F)cc3)CC2)CC1` [Example 78], the Ki in assay [1] (value not in parenthesis) was 0.43 nM; in assay [2] (value not in parenthesis), over 10000 nM. In the case of `COCCN1CCC(C(=O)NO)(S(=O)(=O)N2CCC(c3ccc(CCC(F)(F)C(F)(F)F)cc3)CC2)CC1` [Example 312], the figures for the Ki in assay [1] (value outside parentheses) and in assay [2] (value outside parentheses) were 0.2 nM and 2040 nM, respectively.

For the molecule `CCCCOc1ccc(N2CCN(S(=O)(=O)C3(C(=O)NO)CCN(CC4CC4)CC3)CC2)cc1` [Example 298], the figures for the inhibitory constant (Ki) in assay [1] (value outside parentheses) and in assay [2] (value outside parentheses) were 0.702 nM and over 10000 nM, respectively.

Take `CCCCOc1ccc(N2CCN(S(=O)(=O)C3(C(=O)NO)CCN(c4ccc(C)cc4)CC3)CC2)cc1F` [Example 296]: the Ki in assay [1] (value outside parentheses) was 9.22 nM. Regarding `O=C(NO)C1(S(=O)(=O)N2CCN(c3ccc(COCC(F)(F)C(F)F)cc3)CC2)CCOCC1` [Example 71], the Ki in assay [1] (value not in parenthesis) is 0.79 nM.
